Assay results: patent US10611771B2, “Pyrazolo [3,4-d] pyrimidine derivative” (WEST CHINA HOSPITAL, SICHUAN UNIVERSITY, priority 2016, dated 2020)
“And” between values parts separate entries of the source, which are not always exact repeats. Identical values can stand only once.

Key:
A549 cells = assay: MTT detection method, inhibitory effect against A549 cells; format: cell-based
Excerpt: (§1) MTT detection method was used, and MTT is a yellow compound and a dye accepting hydrogen ions, and can be used as the respiratory chain in mitochondria of viable cells. Under the action of succinate dehydrogenase and cytochrome C, the tetrazolium ring broke to form blue formanzan crystal, and the formation amount of formanzan crystal was only directly proportional to the viable counts. The formanzan crystal formed by reduction can dissolve in dimethyl sulfoxide (DMSO), and the optical density (OD) value can be determined at 490 nm using ELISA, to reflect the viable counts.
(§2) • Lung cancer cell lines: A549 and H1299. • Experimental materials: lung cancer cell lines, instruments and tools for cell culture, MTT, the compound mother liquid (10 mmol/L), and the positive control drug Src inhibitor pp1. 1. Specific Method • (3-1) Cell lines A549 and H1299 were recovered, and when the cells were in good conditions, namely cells grew to about 80% after one passage (i.e. the logarithmic growth phase), the cells were planked (96-well plate). • (3-2) Firstly, cells were collected, and the concentration of cell suspension was adjusted with counting chamber. Cells were seeded in 96-well plate at 1000˜10000 cells/well, and the detailed cell numbers in each well were dependent on the growth rate of different cells and the action time of drugs. A549 cells were seeded at 5000 cells, while H1299 cells were also seeded at 5000 cells, 200 μl for each well (100 μl cell suspension+100 μl drug dilution at different concentration gradient). The edge wells (36) were added 200 μl culture media (for prevention of edge effect). • (3-3) After planking and adding drugs, the plate was treated at 24 h, 48 h, and 72 h, and then for coloration, each well was added 200 μl culture media containing 20 μl MTT solution (5 mg/mL). The plate was continually cultured for 1˜4 hours, the incubation was stopped, and the culture supernatant fluid in each well was carefully absorbed. For suspension cells, the culture supernatant fluid in each well need be centrifuged before drawing. 150 μl DMSO was added to each well, and the plate was shaken on a shaking table for 15˜20 min, to allow the crystals to be completely dissolved. • (3-4) Colorimetry: The colorimetry was performed by ELISA, and the optical absorption value of each well was tested at a wavelength of 490 nm or 570 nm, and the result was recorded. • (3-5) Calculation Inhibition ratio=(the control−the drug)/the control×100% • IC50 (50% inhibitory concentration) can be calculated by spass software based on the inhibitory ratio at different concentration. II. Experimental Results • A549 cells were treated at 4 h, 24 h, 48 h, 72 h, and the drug dose was divided into the light concentration group (10 μm, 25 μm, 40 μm) and the high concentration group (50 μm, 80 μm, 100 μm), that were seeded at 6000 cells/well and 5000 cells/well, respectively, to carry out the experiment.

H1299 cells = assay: MTT detection method, inhibitory effect against H1299 cells; format: cell-based
Excerpt: as §1, §2
H1299 cells were seeded at 5000 cells/well, and after treatment for 4 h, 24 h, 48 h, and 72 h, the results were shown in Tables 5-9 and FIGS. 5-8: […]

## CC(C)(C)n1nc(-c2ccc(OCCOCCOCCOCCO)cc2)c2c(N)ncnc21 [Compound 5, 2-(2-(2-(2-(4-(4-amino-1-tert-butyl-1H-pyrazolo[3,4-d]pyrimidin-3-)phenoxy)ethoxy)ethoxy)ethoxy)ethanol]
A549 cells; 4 h, 10 μm
  The inhibitory ratio (%) for three parallel assays: 26.88% and 26.25% and 28.75%
  The mean inhibitory ratio (%): 27.29%
A549 cells; 4 h, 25 μm
  The mean inhibitory ratio (%): 21.77%
A549 cells; 4 h, 40 μm
  The inhibitory ratio (%) for three parallel assays: 23.44% and 20.94% and 18.13%
  The mean inhibitory ratio (%): 20.83%
A549 cells; 4 h, 50 μm
  The inhibitory ratio (%) for three parallel assays: 16.57% and 11.14% and 14.57%
  The mean inhibitory ratio (%): 14.10%
A549 cells; 4 h, 80 μm
  The inhibitory ratio (%) for three parallel assays: 20.86% and 20.29% and 14.57%
  The mean inhibitory ratio (%): 18.57%
A549 cells; 4 h, 100 μm
  The inhibitory ratio (%) for three parallel assays: 24.00% and 20.86% and 22.57%
  The mean inhibitory ratio (%): 22.48%
A549 cells; 24 h, 10 μm
  The inhibitory ratio (%) for three parallel assays: 14.35% and 15.65% and 13.26%
  The mean inhibitory ratio (%): 14.42%
A549 cells; 24 h, 25 μm
  The inhibitory ratio (%) for three parallel assays: 22.39% and 13.70% and 14.78%
  The mean inhibitory ratio (%): 16.96%
A549 cells; 24 h, 40 μm
  The inhibitory ratio (%) for three parallel assays: 26.30% and 16.52% and 14.13%
  The mean inhibitory ratio (%): 18.99%
A549 cells; 24 h, 50 μm
  The inhibitory ratio (%) for three parallel assays: 17.08% and 18.33% and 17.92%
  The mean inhibitory ratio (%): 17.78%
A549 cells; 24 h, 80 μm
  The inhibitory ratio (%) for three parallel assays: 22.50% and 20.83% and 20.21%
  The mean inhibitory ratio (%): 21.18%
A549 cells; 24 h, 100 μm
  The inhibitory ratio (%) for three parallel assays: 27.92% and 27.50%
  The mean inhibitory ratio (%): 27.78%
A549 cells; 48 h, 10 μm
  The mean inhibitory ratio (%): 9.64%
A549 cells; 48 h, 25 μm
  The inhibitory ratio (%) for three parallel assays: 14.84% and 14.22% and 13.91%
  The mean inhibitory ratio (%): 14.32%
A549 cells; 48 h, 40 μm
  The inhibitory ratio (%) for three parallel assays: 19.22% and 26.72% and 20.63%
  The mean inhibitory ratio (%): 22.19%
A549 cells; 48 h, 50 μm
  The inhibitory ratio (%) for three parallel assays: 15.33% and 13.33% and 12.83%
  The mean inhibitory ratio (%): 13.83%
A549 cells; 48 h, 80 μm
  The inhibitory ratio (%) for three parallel assays: 15.33% and 19.67% and 18.00%
  The mean inhibitory ratio (%): 17.67%
A549 cells; 48 h, 100 μm
  The inhibitory ratio (%) for three parallel assays: 30.50% and 31.33% and 31.67%
  The mean inhibitory ratio (%): 31.17%
A549 cells; 72 h, 10 μm
  The inhibitory ratio (%) for three parallel assays: 9.82% and 8.11% and 15.05%
  The mean inhibitory ratio (%): 10.99%
A549 cells; 72 h, 25 μm
  The inhibitory ratio (%) for three parallel assays: 35.41% and 32.43% and 39.37%
  The mean inhibitory ratio (%): 35.74%
A549 cells; 72 h, 40 μm
  The inhibitory ratio (%) for three parallel assays: 50.18% and 45.68% and 50.45%
  The mean inhibitory ratio (%): 48.77%
A549 cells; 72 h, 50 μm
  The inhibitory ratio (%) for three parallel assays: 20.27% and 17.70% and 22.30%
  The mean inhibitory ratio (%): 20.09%
A549 cells; 72 h, 80 μm
  The inhibitory ratio (%) for three parallel assays: 29.59% and 28.51% and 30.14%
  The mean inhibitory ratio (%): 29.41%
A549 cells; 72 h, 100 μm
  The inhibitory ratio (%) for three parallel assays: 53.11% and 52.70% and 54.05%
  The mean inhibitory ratio (%): 53.29%
H1299 cells; 4 h, 10 μm
  The inhibitory ratio (%) for three parallel assays: 4% and 6%
  The mean inhibitory ratio (%): 4%
H1299 cells; 4 h, 25 μm
  The inhibitory ratio (%) for three parallel assays: 6% and 7%
  The mean inhibitory ratio (%): 7%
H1299 cells; 4 h, 40 μm
  The inhibitory ratio (%) for three parallel assays: 7% and 8%
  The mean inhibitory ratio (%): 8%
H1299 cells; 4 h, 50 μm
  The inhibitory ratio (%) for three parallel assays: 13% and 9%
  The mean inhibitory ratio (%): 10%
H1299 cells; 4 h, 80 μm
  The inhibitory ratio (%) for three parallel assays: 12% and 13%
  The mean inhibitory ratio (%): 12%
H1299 cells; 4 h, 100 μm
  The inhibitory ratio (%) for three parallel assays: 13% and 15% and 14%
  The mean inhibitory ratio (%): 14%
H1299 cells; 24 h, 10 μm
  The inhibitory ratio (%) for three parallel assays: 10% and 8% and 13%
  The mean inhibitory ratio (%): 11%
H1299 cells; 24 h, 25 μm
  The inhibitory ratio (%) for three parallel assays: 14% and 13%
  The mean inhibitory ratio (%): 14%
H1299 cells; 24 h, 40 μm
  The inhibitory ratio (%) for three parallel assays: 11% and 13% and 14%
  The mean inhibitory ratio (%): 13%
H1299 cells; 24 h, 50 μm
  The inhibitory ratio (%) for three parallel assays: 20% and 25% and 26%
  The mean inhibitory ratio (%): 24%
H1299 cells; 24 h, 80 μm
  The inhibitory ratio (%) for three parallel assays: 28% and 26% and 24%
  The mean inhibitory ratio (%): 26%
H1299 cells; 24 h, 100 μm
  The inhibitory ratio (%) for three parallel assays: 29% and 31% and 26%
  The mean inhibitory ratio (%): 28%
H1299 cells; 48 h, 10 μm
  The inhibitory ratio (%) for three parallel assays: 4% and 5% and 6%
  The mean inhibitory ratio (%): 5%
H1299 cells; 48 h, 25 μm
  The inhibitory ratio (%) for three parallel assays: 15% and 18% and 14%
  The mean inhibitory ratio (%): 16%
H1299 cells; 48 h, 40 μm
  The inhibitory ratio (%) for three parallel assays: 22% and 25%
  The mean inhibitory ratio (%): 23%
H1299 cells; 48 h, 50 μm
  The inhibitory ratio (%) for three parallel assays: 24% and 26%
  The mean inhibitory ratio (%): 25%
H1299 cells; 48 h, 80 μm
  The inhibitory ratio (%) for three parallel assays: 36% and 38%
  The mean inhibitory ratio (%): 37%
H1299 cells; 48 h, 100 μm
  The inhibitory ratio (%) for three parallel assays: 42% and 41%
  The mean inhibitory ratio (%): 41%
H1299 cells; 72 h, 10 μm
  The inhibitory ratio (%) for three parallel assays: 8% and 5% and 2%
  The mean inhibitory ratio (%): 5%
H1299 cells; 72 h, 25 μm
  The inhibitory ratio (%) for three parallel assays: 7% and 4% and 3%
  The mean inhibitory ratio (%): 5%
H1299 cells; 72 h, 40 μm
  The inhibitory ratio (%) for three parallel assays: 18% and 21% and 23%
  The mean inhibitory ratio (%): 20%
H1299 cells; 72 h, 50 μm
  The inhibitory ratio (%) for three parallel assays: 26% and 23%
  The mean inhibitory ratio (%): 24%
H1299 cells; 72 h, 80 μm
  The inhibitory ratio (%) for three parallel assays: 37% and 36% and 38%
  The mean inhibitory ratio (%): 37%
H1299 cells; 72 h, 100 μm
  The inhibitory ratio (%) for three parallel assays: 45% and 41% and 39%
  The mean inhibitory ratio (%): 42%
